Source: US11330821B2, “Herbicidal compounds” (Syngenta Participations AG, priority 2015, dated 2022)

Key:
Type in all cases: in vivo
Conditions in all cases: post-emergence spray, evaluated after 13 days
Solanum nigrum (SOLNI) = assay: Post-emergence efficacy, Solanum nigrum
Description: (§1) B1 Post-Emergence Efficacy
(§2) Seeds of a variety of test species are shown in standard soil in pots:—Solanum nigrum (SOLNI), Amaranthus retroflexus (AMARE), Setaria faberi (SETFA), Echinochloa crus-galli (ECHCG), Ipomoea hederacea (IPOHE), Lolium perenne (LOLPE). After 8 days cultivation (post-emergence) under controlled conditions in a glasshouse (at 24/16° C., day/night; 14 hours light; 65% humidity), the plants are sprayed with an aqueous spray solution derived from the formulation of the technical active ingredient in acetone/water (50:50) solution containing 0.5% Tween 20 (polyoxyethylene sorbitan monolaurate, CAS RN 9005-64-5). Compounds are applied at 1000 and 62.5 g/ha. The test plants are then grown in a glasshouse under controlled conditions in a glasshouse (at 24/16° C., day/night; 14 hours light; 65% humidity) and watered twice daily. After 13 days, the test is evaluated for the percentage damage caused to the plant. The biological activities are assessed on a five point scale (5=80-100%; 4=60-79%; 3=40-59%; 2=20-39%; 1=0-19%).

[1] = system: Amaranthus retroflexus (AMARE); assay: Post-emergence efficacy, Amaranthus retroflexus
Description: as §1, §2

[2] = system: Echinochloa crus-galli (ECHCG); assay: Post-emergence efficacy, Echinochloa crus-galli
Description: as §1, §2

Setaria faberi (SETFA) = assay: Post-emergence efficacy, Setaria faberi
Description: as §1, §2

[3] = system: Ipomoea hederacea (IPOHE); assay: Post-emergence efficacy, Ipomoea hederacea
Description: as §1, §2

Lolium perenne (LOLPE) = assay: Post-emergence efficacy, Lolium perenne
Description: as §1, §2

Compound | SOLNI percentage damage caused to the plant (five point scale) (Solanum nigrum (SOLNI); 62.5 g/ha) | SOLNI percentage damage caused to the plant (five point scale) (Solanum nigrum (SOLNI); 1000 g/ha) | AMARE percentage damage caused to the plant (five point scale) ([1]; 62.5 g/ha) | AMARE percentage damage caused to the plant (five point scale) ([1]; 1000 g/ha) | ECHCG percentage damage caused to the plant (five point scale) ([2]; 62.5 g/ha) | ECHCG percentage damage caused to the plant (five point scale) ([2]; 1000 g/ha) | SETFA percentage damage caused to the plant (five point scale) (Setaria faberi (SETFA); 62.5 g/ha) | SETFA percentage damage caused to the plant (five point scale) (Setaria faberi (SETFA); 1000 g/ha) | IPOHE percentage damage caused to the plant (five point scale) ([3]; 62.5 g/ha) | IPOHE percentage damage caused to the plant (five point scale) ([3]; 1000 g/ha) | LOLPE percentage damage caused to the plant (five point scale) (Lolium perenne (LOLPE); 62.5 g/ha) | LOLPE percentage damage caused to the plant (five point scale) (Lolium perenne (LOLPE); 1000 g/ha)
Cc1nn(C)c(=O)c(-c2c(Cl)ccc(Cl)c2OCc2cccnc2)c1O [Compound 1.02] | 4 (4=60-79%) | 5 (5=80-100%) | 4 (4=60-79%) | 4 (4=60-79%) | 3 (3=40-59%) | 4 (4=60-79%) | 3 (3=40-59%) | 5 (5=80-100%) | 3 (3=40-59%) | 5 (5=80-100%) | 2 (2=20-39%) | 4 (4=60-79%)
Cc1nn(C)c(=O)c(-c2c(Cl)ccc(Cl)c2OCc2ccncc2)c1O [Compound 1.03] | 4 (4=60-79%) | 5 (5=80-100%) | 1 (1=0-19%) | 4 (4=60-79%) | 2 (2=20-39%) | 5 (5=80-100%) | 1 (1=0-19%) | 5 (5=80-100%) | 4 (4=60-79%) | 4 (4=60-79%) | 1 (1=0-19%) | 4 (4=60-79%)
Cc1nn(C)c(=O)c(-c2c(Cl)ccc(Cl)c2OCc2nccs2)c1O [Compound 1.04] | 5 (5=80-100%) | 5 (5=80-100%) | 5 (5=80-100%) | 5 (5=80-100%) | 4 (4=60-79%) | 5 (5=80-100%) | 5 (5=80-100%) | 5 (5=80-100%) | 5 (5=80-100%) | 5 (5=80-100%) | 3 (3=40-59%) | 5 (5=80-100%)
Cc1nn(C)c(=O)c(-c2c(Cl)ccc(Cl)c2OCc2cncs2)c1O [Compound 1.06] | 5 (5=80-100%) | 5 (5=80-100%) | 4 (4=60-79%) | 5 (5=80-100%) | 5 (5=80-100%) | 5 (5=80-100%) | 5 (5=80-100%) | 5 (5=80-100%) | 5 (5=80-100%) | 5 (5=80-100%) | 4 (4=60-79%) | 5 (5=80-100%)
Cc1nc(COc2c(Cl)ccc(Cl)c2-c2c(O)c(C)nn(C)c2=O)cs1 [Compound 1.12] | 3 (3=40-59%) | 5 (5=80-100%) | 3 (3=40-59%) | 5 (5=80-100%) | 2 (2=20-39%) | 4 (4=60-79%) | 2 (2=20-39%) | 5 (5=80-100%) | 4 (4=60-79%) | 5 (5=80-100%) | 1 (1=0-19%) | 4 (4=60-79%)
Cc1csc(COc2c(Cl)ccc(Cl)c2-c2c(O)c(C)nn(C)c2=O)n1 [Compound 1.13] | 4 (4=60-79%) | 5 (5=80-100%) | 3 (3=40-59%) | 4 (4=60-79%) | 3 (3=40-59%) | 5 (5=80-100%) | 4 (4=60-79%) | 5 (5=80-100%) | 4 (4=60-79%) | 5 (5=80-100%) | 2 (2=20-39%) | 4 (4=60-79%)
Cc1nn(C)c(=O)c(-c2c(Cl)ccc(Cl)c2OCc2ccnc(Cl)c2)c1O [Compound 1.14] | 4 (4=60-79%) | 5 (5=80-100%) | 5 (5=80-100%) | 5 (5=80-100%) | 4 (4=60-79%) | 5 (5=80-100%) | 4 (4=60-79%) | 5 (5=80-100%) | 5 (5=80-100%) | 5 (5=80-100%) | 3 (3=40-59%) | 5 (5=80-100%)
CC1=NN(C)C(=O)C(c2c(Cl)ccc(Cl)c2OCc2cnc(Cl)s2)C1=O (stereo not drawn) [Compound 1.19, 4-[3,6-dichloro-2-[(2-chlorothiazol-5-yl)methoxy]phenyl]-2,6-dimethyl-pyridazine-3,5-dione] | 5 (5=80-100%) | 5 (5=80-100%) | 5 (5=80-100%) | 5 (5=80-100%) | 3 (3=40-59%) | 5 (5=80-100%) | 5 (5=80-100%) | 5 (5=80-100%) | 5 (5=80-100%) | 5 (5=80-100%) | 5 (5=80-100%) | 5 (5=80-100%)
Cc1cnc(COc2c(Cl)ccc(Cl)c2-c2c(O)c(C)nn(C)c2=O)cn1 [Compound 1.21] | 3 (3=40-59%) | 4 (4=60-79%) | 2 (2=20-39%) | 3 (3=40-59%) | 1 (1=0-19%) | 4 (4=60-79%) | 3 (3=40-59%) | 5 (5=80-100%) | 4 (4=60-79%) | 5 (5=80-100%) | 1 (1=0-19%) | 2 (2=20-39%)
